Assay results: US12497663B2, “Method of monitoring treatment” (LDN Pharma Limited, priority 2019, dated 2025)

Tested on: CD3+ cells
Experiment: Gene expression in CD3+ cells from CD14-ve PBMCs cultured with naltrexone (Illumina biochips)
Format: cell-based, human
Details: 4 h
Experimental: The RNA was then extracted from the cells using Trizol then isopropanol. The expression of the genes was measured using Illumina platform with biochips surveying the total human genome. […] The ratio of treated:untreated was calculated and the 25% change from untreated considered relevant.

[1] = ratio treated:untreated, 10 nM naltrexone
[2] = ratio treated:untreated, 10 uM naltrexone

## O=C1CC[C@@]2(O)[C@H]3Cc4ccc(O)c5c4[C@@]2(CCN3CC2CC2)[C@H]1O5 [NTX, morphinan-6-one,17-(cyclopropylmethyl)-4,5-epoxy-3,14-dihydroxy-(5a)]
10 uM naltrexone
  ACTB N/U-score: o (no change)
  ALDH4A1 N/U-score: o (no change)
  ASAP1 N/U-score: o (no change)
  BCLAF1 N/U-score: o (no change)
  BIRC3 N/U-score: o (no change)
  CASZ1 N/U-score: o (no change)
  CDC42SE2 N/U-score: o (no change)
  CDKN2AIP N/U-score: o (no change)
  DRAP1 N/U-score: D (reduction)
  DYNLL2 N/U-score: o (no change)
  EIF2S3 N/U-score: o (no change)
  EIF3E N/U-score: o (no change)
  EIF3M N/U-score: o (no change)
  EIF4B N/U-score: o (no change)
  EZR N/U-score: o (no change)
  FRG1 N/U-score: o (no change)
  H3F3A N/U-score: o (no change)
  HIST1H4C N/U-score: o (no change)
  HPCAL1 N/U-score: o (no change)
  ITGB2 N/U-score: o (no change)
  KCTD6 N/U-score: o (no change)
  LSM5 N/U-score: o (no change)
  MAP4K1 N/U-score: D (reduction)
  MORF4L1 N/U-score: o (no change)
  MTF1 N/U-score: o (no change)
  MYLK N/U-score: o (no change)
  NUCB1 N/U-score: o (no change)
  OR10A6 N/U-score: o (no change)
  PAH N/U-score: o (no change)
  PDCD4 N/U-score: o (no change)
  PECI N/U-score: o (no change)
  PRPF8 N/U-score: o (no change)
  PSME2 N/U-score: o (no change)
  PVRL2 N/U-score: o (no change)
  RASAL3 N/U-score: D (reduction)
  S100A6 N/U-score: D (reduction)
  SH3BGRL3 N/U-score: o (no change)
  SPOCK2 N/U-score: o (no change)
  WDR75 N/U-score: o (no change)
  YWHAZ N/U-score: D (reduction)
[1]
  ACTB LDN/UN: 1.560
  ALDH4A1 LDN/UN: 1.691
  ASAP1 LDN/UN: 0.701
  BCLAF1 LDN/UN: 0.653
  BIRC3 LDN/UN: 0.703
  CASZ1 LDN/UN: 1.775
  CDC42SE2 LDN/UN: 0.590
  CDKN2AIP LDN/UN: 0.702
  DRAP1 LDN/UN: 1.253
  DYNLL2 LDN/UN: 0.702
  EIF2S3 LDN/UN: 0.702
  EIF3E LDN/UN: 0.647
  EIF3M LDN/UN: 0.613
  EIF4B LDN/UN: 1.576
  EZR LDN/UN: 1.563
  FRG1 LDN/UN: 0.614
  H3F3A LDN/UN: 0.632
  HIST1H4C LDN/UN: 0.667
  HPCAL1 LDN/UN: 1.515
  ITGB2 LDN/UN: 1.528
  KCTD6 LDN/UN: 0.700
  LSM5 LDN/UN: 0.639
  MAP4K1 LDN/UN: 1.294
  MORF4L1 LDN/UN: 0.698
  MTF1 LDN/UN: 0.676
  MYLK LDN/UN: 1.659
  NUCB1 LDN/UN: 1.483
  OR10A6 LDN/UN: 1.570
  PAH LDN/UN: 1.687
  PDCD4 LDN/UN: 0.672
  PECI LDN/UN: 0.675
  PRPF8 LDN/UN: 1.543
  PSME2 LDN/UN: 0.700
  PVRL2 LDN/UN: 1.483
  RASAL3 LDN/UN: 1.365
  S100A6 LDN/UN: 1.397
  SH3BGRL3 LDN/UN: 1.479
  SPOCK2 LDN/UN: 1.487
  WDR75 LDN/UN: 0.705
  YWHAZ LDN/UN: 1.287
[2]
  ACTB NTX/UN: 1.241
  ALDH4A1 NTX/UN: 1.184
  ASAP1 NTX/UN: 0.826
  BCLAF1 NTX/UN: 0.800
  BIRC3 NTX/UN: 0.918
  CASZ1 NTX/UN: 1.130
  CDC42SE2 NTX/UN: 0.796
  CDKN2AIP NTX/UN: 0.766
  DRAP1 NTX/UN: 0.723
  DYNLL2 NTX/UN: 0.865
  EIF2S3 NTX/UN: 0.756
  EIF3E NTX/UN: 0.910
  EIF3M NTX/UN: 0.757
  EIF4B NTX/UN: 1.123
  EZR NTX/UN: 1.079
  FRG1 NTX/UN: 0.773
  H3F3A NTX/UN: 0.758
  HIST1H4C NTX/UN: 0.836
  HPCAL1 NTX/UN: 0.849
  ITGB2 NTX/UN: 0.942
  KCTD6 NTX/UN: 0.774
  LSM5 NTX/UN: 0.839
  MAP4K1 NTX/UN: 0.726
  MORF4L1 NTX/UN: 0.772
  MTF1 NTX/UN: 0.771
  MYLK NTX/UN: 1.241
  NUCB1 NTX/UN: 1.148
  OR10A6 NTX/UN: 1.235
  PAH NTX/UN: 1.183
  PDCD4 NTX/UN: 0.779
  PECI NTX/UN: 1.043
  PRPF8 NTX/UN: 1.174
  PSME2 NTX/UN: 0.877
  PVRL2 NTX/UN: 1.102
  RASAL3 NTX/UN: 0.713
  S100A6 NTX/UN: 0.655
  SH3BGRL3 NTX/UN: 1.224
  SPOCK2 NTX/UN: 1.194
  WDR75 NTX/UN: 0.830
  YWHAZ NTX/UN: 0.736
